Measurements reported in patent US5556878A, “Δ^6,7 -taxols antineoplatic use and pharmaceutical compositions containing them” (The Upjohn Company, priority 1994, dated 1996).
Converted amounts (≈) assume the structure as drawn. Where two headings read alike, the source gives them in different places.

How the values were obtained:
[1] = system: L1210 leukemia; test: L1210 leukemia cell proliferation inhibition (Table I); type: cell-based; details: Mus musculus
From the text: The biological activity of the compounds of this invention has been further confirmed using well known procedures against L1210 leukemia and the results set forth in Table I. The results were obtained using standard well known procedure (Li, L. H.; Kuentzel, S. L.; Murch, L. L.; Pschigoga, L. M.; and W. C. Krueger, "Comparative biological and biochemical effects of nogalamycin and its analogs on L1210 leukemia," Cancer Res. 39:4816-4822 (1979)). The results are expressed as an IC50 which is the drug concentration required to inhibit cell proliferation to 50% of that of untreated control cells. Lower numbers indicated greater activity.

[2] = system: tubulin; test: In vitro tubulin polymerization assay after Gaskin et al.; type: biochemical; details: 20° C.; for induction of tubulin polymerization in vitro: compared with taxol
From the text: (§1) The biological activity of the 7-deoxy-7β,8β-methanotaxol compounds (Formula II) of the invention has been confirmed using well known procedures.
(§2) The biological activity of the 7-deoxy-7-halotaxol compounds (Formula III) of the invention has been confirmed using well known procedures.

[3] = system: L1210 mouse leukemia carcinoma cells; test: Cytotoxicity in L1210 mouse leukemia carcinoma cells in culture (IC90); type: cell-based; details: read-out: IC90 (90% growth inhibitory concentration)
From the text: as §1

[4] = system: A2780 (human ovarian carcinoma) cells; test: Cytotoxicity in A2780 (human ovarian carcinoma) cells in culture (IC90); type: cell-based; details: read-out: IC90 (90% growth inhibitory concentration)
From the text: as §2

[5] = L1210, drug concentration required to inhibit cell proliferation to 50% of untreated control cells, read-out: L1210 (IC50 μg/ml)
[6] = L1210, read-out: L1210 (IC50 μg/ml)

Compound: CC(=O)O[C@H]1C(=O)[C@]2(C)C(F)C[C@H]3OC[C@@]3(OC(C)=O)[C@H]2[C@H](OC(=O)c2ccccc2)[C@]2(O)C[C@H](OC(=O)[C@H](OC(=O)OCC(Cl)(Cl)Cl)[C@@H](NC(=O)OC(C)(C)C)c3ccccc3)C(C)=C1C2(C)C (stereo partly drawn) [Compound 13DA, N-Debenzoyl-N-(t-butyl)oxycarbonyl-2'-{[(2,2,2-trichloroethyl)oxy]carbonyl}-7-deoxy-7-fluorotaxol]
- IC50 [1, 5]: 0.015 µg/mL (≈ 0.0146 µM)

Compound: CC(=O)O[C@H]1C(=O)[C@]2(C)C=C[C@H]3OC[C@@]3(OC(C)=O)[C@H]2[C@H](OC(=O)c2ccccc2)[C@]2(O)C[C@H](OC(=O)[C@H](O)[C@@H](NC(=O)NC(C)(C)C)c3ccccc3)C(C)=C1C2(C)C [Compound 16F, 13-(N-t-Butylurea-β-phenyl-isoserinyl)-Δ^6,7-baccatin III]
- IC50 [1, 6]: 0.0032 µg/mL (≈ 0.00385 µM)

Compound: CC(=O)O[C@H]1C(=O)[C@]23C[C@H]2C[C@H]2OC[C@@]2(OC(C)=O)[C@H]3[C@H](OC(=O)c2ccccc2)[C@]2(O)C[C@H](OC(=O)[C@H](O)[C@@H](NC(=O)OC(C)(C)C)c3ccccc3)C(C)=C1C2(C)C [Compound 23, N-Debenzoyl-N-(t-butyl)oxycarbonyl-7-deoxy-7β,8β-methanotaxol]
- IC50 [1, 5]: 0.0046 µg/mL (≈ 0.00553 µM)

Compound: CC(=O)O[C@@]12CO[C@@H]1C[C@H](O)[C@@]1(C)C(=O)[C@H](O)C3=C(C)[C@@H](OC(=O)[C@H](O)[C@@H](NC(=O)OC(C)(C)C)c4ccccc4)C[C@@](O)([C@@H](OC(=O)c4ccccc4)[C@H]21)C3(C)C [Taxotere, reference compound]
- IC50 [1, 5]: 0.004 µg/mL (≈ 0.00495 µM)

Compound: CC(=O)O[C@H]1C(=O)[C@]2(C)C=C[C@H]3OC[C@@]3(OC(C)=O)[C@H]2[C@H](OC(=O)c2ccccc2)[C@]2(O)C[C@H](OC(=O)[C@H](OC(=O)OCC(Cl)(Cl)Cl)[C@@H](NC(=O)c3ccccc3)c3ccccc3)C(C)=C1C2(C)C [Compound 15AA, 2'-{[(2,2,2-Trichloroethyl)oxy]carbonyl)-7-deoxy-Δ^6,7-taxol]
- IC50 [1, 5]: 0.012 µg/mL (≈ 0.0119 µM)

Compound: CC(=O)O[C@H]1C(=O)[C@]23C[C@H]2C[C@H]2OC[C@@]2(OC(C)=O)[C@H]3[C@H](OC(=O)c2ccccc2)[C@]2(O)C[C@H](OC(=O)[C@H](O)[C@@H](NC(=O)c3ccccc3)c3ccccc3)C(C)=C1C2(C)C [Compound IIb, 7-Deoxy-7β,8β-methanotaxol]
- IC50 [1, 5]: 0.012 µg/mL (≈ 0.0144 µM)
- induction of tubulin polymerization in vitro [2]: able to induce tubulin polymerization in vitro at 20 °C in a manner very similar to taxol
- IC90 [3]: 0.025 µg/mL (≈ 0.0299 µM)

Compound: CC(=O)O[C@H]1C(=O)[C@]2(C)C=C[C@H]3OC[C@@]3(OC(C)=O)[C@H]2[C@H](OC(=O)c2ccccc2)[C@]2(O)C[C@H](OC(=O)[C@H](O)[C@@H](NC(=O)c3ccccc3)c3ccccc3)C(C)=C1C2(C)C [Compound 16A, 7-Deoxy-Δ^6,7-taxol]
- IC50 [1, 5]: 0.0042 µg/mL (≈ 0.00502 µM)

Compound: CC(=O)O[C@H]1C(=O)[C@]23C[C@H]2C[C@H]2OC[C@@]2(OC(C)=O)[C@H]3[C@H](OC(=O)c2ccccc2)[C@]2(O)C[C@H](OC(=O)[C@H](OC(=O)OCC(Cl)(Cl)Cl)[C@@H](NC(=O)OC(C)(C)C)c3ccccc3)C(C)=C1C2(C)C [Compound 14DA, N-Debenzoyl-N-(t-butyl)oxycarbonyl-2'-{[(2,2,2-trichloroethyl)oxy]carbonyl}-7-deoxy-7β,8β-methanotaxol]
- IC50 [1, 5]: 0.012 µg/mL (≈ 0.0119 µM)

Compound: CC(=O)O[C@H]1C(=O)[C@]2(C)C=C[C@H]3OC[C@@]3(OC(C)=O)[C@H]2[C@H](OC(=O)c2ccccc2)[C@]2(O)C[C@H](OC(=O)[C@H](O)[C@@H](NC(=O)OC(C)(C)C)c3ccccc3)C(C)=C1C2(C)C [Compound 16D, N-Debenzoyl-N-(t-butyl)oxycarbonyl-7-deoxy-Δ^6,7-taxol]
- IC50 [1, 6]: 0.0016 µg/mL (≈ 0.00192 µM)

Compound: CC(=O)O[C@H]1C(=O)[C@]2(C)C(F)C[C@H]3OC[C@@]3(OC(C)=O)[C@H]2[C@H](OC(=O)c2ccccc2)[C@]2(O)C[C@H](OC(=O)[C@H](OC(=O)OCC(Cl)(Cl)Cl)[C@@H](NC(=O)c3ccccc3)c3ccccc3)C(C)=C1C2(C)C (stereo partly drawn) [Compound 13AA, 2'-{[(2,2,2-Trichloroethyl)-oxy]carbonyl)-7-deoxy-7-fluorotaxol]
- IC50 [1, 5]: 0.054 µg/mL (≈ 0.0524 µM)

Compound: CC(=O)O[C@H]1C(=O)[C@@]2(C)[C@H]([C@H](OC(=O)c3ccccc3)[C@]3(O)C[C@H](OC(=O)[C@H](O)[C@@H](NC(=O)c4ccccc4)c4ccccc4)C(C)=C1C3(C)C)[C@]1(OC(C)=O)CO[C@@H]1C[C@@H]2O [Taxol]
- IC50 [1, 5]: 0.015 µg/mL (≈ 0.0176 µM)
- IC90 [3]: 0.06 µg/mL (≈ 0.0703 µM)
- IC90 [4]: 0.007 µg/mL (≈ 0.0082 µM)

Compound: CC(=O)O[C@H]1C(=O)[C@]23C[C@H]2C[C@H]2OC[C@@]2(OC(C)=O)[C@H]3[C@H](OC(=O)c2ccccc2)[C@]2(O)C[C@H](OC(=O)[C@H](OC(=O)OCC(Cl)(Cl)Cl)[C@@H](NC(=O)c3ccccc3)c3ccccc3)C(C)=C1C2(C)C [Compound 14AA, 2'-{[(2,2,2-Trichloroethyl)oxy]carbonyl}-7-deoxy-7β,8β-methanotaxol]
- IC50 [1, 5]: > 0.1 µg/mL

Compound: CC(=O)O[C@H]1C(=O)[C@]2(C)C(F)C[C@H]3OC[C@@]3(OC(C)=O)[C@H]2[C@H](OC(=O)c2ccccc2)[C@]2(O)C[C@H](OC(=O)[C@H](O)[C@@H](NC(=O)OC(C)(C)C)c3ccccc3)C(C)=C1C2(C)C (stereo partly drawn) [Compound 20, N-Debenzoyl-N-(t-butyl)oxycarbonyl-7-deoxy-7-fluorotaxol]
- IC50 [1, 5]: 0.0038 µg/mL (≈ 0.00446 µM)

Compound: CC(=O)O[C@H]1C(=O)[C@]2(C)C(F)C[C@H]3OC[C@@]3(OC(C)=O)[C@H]2[C@H](OC(=O)c2ccccc2)[C@]2(O)C[C@H](OC(=O)[C@H](O)[C@@H](NC(=O)c3ccccc3)c3ccccc3)C(C)=C1C2(C)C (stereo partly drawn) [Compound IIIb, 7-Deoxy-7-fluorotaxol]
- IC50 [1, 5]: 0.01 µg/mL (≈ 0.0117 µM)
- potency in tubulin polymerization assay relative to taxol [2]: approximately half as potent as taxol
- induction of tubulin polymerization in vitro [2]: able to induce tubulin polymerization in vitro at 20 °C in a manner very similar to taxol
- IC90 [4]: 0.016 µg/mL (≈ 0.0187 µM)
